One data set has as its system duodénum isolé de rat. Description: Antispasmodic action: antagonism of barium chloride-induced contraction on isolated rat duodenum (Magnus method). The note with it: for IC50: read-out: Concentrations molaires inhibitrices 50 %. The method, then: Les essais sont effectués sur le duodénum isolé de rat en survie dans du liquide de Tyrode oxygéné et à température de 37°C (cuve de 20 ml, bain- marie à organes isolés type Valette).
Le tonus et les mouvements de l'organe isolé sont enregistrés par la méthode de Magnus (R.) (Arch. Ges. Physiol. 1904, 102; 123) à l'aide d'une jauge de contrainte reliée à un enregistreur électronique Electromed.
L'antagonisme exercé par le produit étudié est recherché vis-à-vis des effets contracturants musculotropes du chlorure de baryum.
La papavérine est utilisée comme substance antagoniste de référence.
On détermine la concentration molaire du produit qui diminue de 50 % les effets du chlorure de baryum.

A short description of data set [1]: Acute toxicity (LD50) in mice. The following applies: mouse, in vivo, souris Swiss NMRI, read-out: DL50 (the source's name). The method, then:
La DL50 a été déterminée chez la souris Swiss NMRI sur le bromhydrate de la benzyloxy-4 pipéridine : - voie orale DL50 75 mg/kg - voie I.V. DL50 32,5 mg/kg

Like-named read-outs stand apart in the source and are kept apart here.

As to `c1ccc(COC2CCNCC2)cc1` [Benzyloxy-4 pipéridine (bromhydrate), Bromhydrate de benzyloxy-4 pipéridine], in the data set on duodénum isolé de rat (concentration reducing by 50 % the effects of chlorure de baryum, isolated rat duodenum in oxygenated Tyrode, 37°C), the IC50 amounted to 18 µM. The “activité antispasmodique comparée à celle de la papavérine” value in the data set with duodénum isolé de rat (qualitative comparison with papavérine, chlorure de baryum contraction, isolated rat duodenum) is “sensiblement égale à celle de la papavérine”. Also, the LD50 is 32.5 mg/kg in data set [1] (iv, voie I.V.) and 75 mg/kg in data set [1] (po, voie orale).
Turning to `COc1ccc(Cc2nccc3cc(OC)c(OC)cc23)cc1OC` [Papavérine, reference compound], the IC50 with duodénum isolé de rat (Rattus norvegicus) was 12.5 µM.

For the origin of these results see patent publication EP0015817A1, “Piperidine derivatives, process for their preparation and their use in therapeutical compositions” (METABIO-JOULLIE Société anonyme:, priority 1979, dated 1980).
